Structures can show the parent of a compound that is named as a salt.
Tests used:
[1] = system: bladder specimens enucleated from rats; assay: Anticholinergic effect on bladder specimens enucleated from rats (contraction caused by acetylcholine); format: cell-based, rat (male S. D.); conditions: Rattus norvegicus; inhibition of contraction caused by acetylcholine (10^-5 M); Tyrode's solution 32° C.; agent applied 5 minutes before
Description: Anticholinergic effect on bladder specimens enucleated from rats:
(§1) Male S. D. rats weighing 220-450 g were exsanguinated to death to enucleate their bladders, thereby preparing vertically split specimens (3-5 mm wide by 10-15 mm long) with each triangular part removed therefrom. Each of the specimens was suspended in a Magnus bath filled with a Tyrode's solution (32° C.) aerated by a mixed gas (95% O2, 5% CO2) with a load of 0.5 g applied thereto. The response of the specimen was recorded in terms of isometric contraction through a tension transducer. After the stability of the specimen was attained, an effect on contraction caused by acetylcholine (10^-5 M) was investigated. Incidentally, agents to be tested were applied to the individual specimens in advance for 5 minutes before the test to investigate their effects.

[2] = system: bladder specimens enucleated from rats; assay: Calcium antagonism against bladder specimens enucleated from rats (contraction caused by calcium chloride); format: cell-based, rat (male S. D.); conditions: Rattus norvegicus; inhibition of contraction caused by 10^-3 M calcium chloride after Ca removal with 1 mM EDTA; cumulative application; corrected for spontaneous relaxation
Description: as §1
Calcium antagonism against bladder specimens enucleated from rats:
After removal of calcium ion in specimens prepared in accordance with the testing method of Test Example 1 by adding 1 mM EDTA, 10^-3 M calcium chloride was applied to the specimens. After contraction caused by calcium chloride was stable, each of agents to be tested was applied cumulatively to the specimen. Assuming that the contraction upon the first application of the test agent was 100%, a value obtained by subtracting a spontaneous relaxation rage of a specimen, to which no agent was applied, from an inhibiting rate upon the application of the agent of varied concentrations was regarded as a contraction inhibiting rate.

SMILES | IC50 [1] | IC30 [2]
O=C(NC1CCN(Cc2ccccc2)CC1)C(O)(c1ccccc1)C1CCCCC1 (stereo not shown) [Compound 1] | 32 nM | 2660 nM
CN1CCC(NC(=O)C(O)(c2ccccc2)C2CCCCC2)CC1 (stereo not shown) [Compound 2] | 434 nM | –
O=C(NC1CCN(Cc2ccccc2)CC1)C(O)(c1ccccc1)C1CC1 (stereo not shown) [Compound 3] | 27 nM | 26600 nM
O=C(NC1CCN(Cc2ccccc2)CC1)C(O)(c1ccccc1)C1CCCC1 (stereo not shown) [Compound 4] | 33.6 nM | 2850 nM
COc1ccc(C(O)(C(=O)NC2CCN(Cc3ccccc3)CC2)C2CCCC2)cc1 (stereo not shown) [Compound 15] | 130 nM | –
CC(C)C(O)(C(=O)NC1CCN(Cc2ccccc2)CC1)c1ccccc1 (stereo not shown) [Compound 23] | 66 nM | –
COc1cccc(C(O)(C(=O)NC2CCN(Cc3ccccc3)CC2)C2CCCC2)c1 (stereo not shown) [Compound 29] | 850 nM | –
CC(C)C(O)(C(=O)NC1CCN(Cc2ccccc2)CC1)c1cccc(Cl)c1 (stereo not shown) [Compound 34] | 280 nM | –
O=C(NC1CCN(Cc2ccccc2)CC1)C(O)(c1cccc(Cl)c1)C1CCCC1 (stereo not shown) [Compound 35] | 200 nM | –
O=C(NC1CCN(Cc2ccccc2)CC1)C(O)(c1ccccn1)C1CCCC1 (stereo not shown) [Compound 49] | 6.5 nM | –
Cc1ccc(C(O)(C(=O)NC2CCN(Cc3ccccc3)CC2)C(C)C)cc1 (stereo not shown) [Compound 56] | 168 nM | –
CCCOC(C(=O)OC1CCN(C)CC1)(c1ccccc1)c1ccccc1 [Propiverine hydrochloride, reference compound] | 784 nM | 12100 nM

— US5968956A, “Substituted piperidine derivative and medicine comprising the same” (SS Pharmaceutical Co., Ltd., priority 1995, dated 1999)
